# Experimental data taken from patent US11510943B2, “Chemotherapeutic agent comprising combination of alexidine dihydrochloride and sodium pentaborate pentahydrate” (YEDITEPE UNIVERSITESI, priority 2018, dated 2022).
# “Also recorded” adds a separate entry of the source. Structures can show the parent of a compound that is named as a salt.
# Assays:
# [1] = Experimental: The sodium pentaborate pentahydrate compound was dissolved in the appropriate medium for the cell that was used and filtered to enable sterilization.
# [2] = system: healthy cells (hTert-HPNE, HNPC, hFSSCs, HUVEC); experiment: toxicity analysis (MTS viability assay), healthy cells together; format: cell-based
# [3] = system: pancreatic cancer cell (AsPc-1); experiment: colorimetric tetrazolium salt (MTS) viability assay, AsPc-1
# Source text: (§1) This value is 10-20% more than the chemotherapeutic effect of alexidine dihydrochloride alone.
# [4] = system: pancreatic cancer cell (Psn-1); experiment: colorimetric tetrazolium salt (MTS) viability assay, Psn-1
# Source text: as §1
# [5] = system: pancreatic cancer cells (MIA PaCa-2, AsPc-1 and Psn-1); experiment: colorimetric tetrazolium salt (MTS) viability assay, pancreatic cancer cells together; details: Pancreatic cancer cell, 48 h, read-out: viability of the pancreatic cancer cells
# Source text: as §1
# [6] = system: pancreatic cancer cell (MIA PaCa-2); experiment: colorimetric tetrazolium salt (MTS) viability assay, MIA PaCa-2; details: Homo sapiens, MIA PaCa-2, 48 h, read-out: viability of MIA PaCa-2 cells
# Source text: as §1
# [7] = system: healthy intervertebral disc cell (HNPC); experiment: colorimetric tetrazolium salt (MTS) viability assay, HNPC; format: cell-based; details: AD alone, 2.5 μM, 48 hours of incubation
# [8] = solubility in dimethylsulfoxide; format: physicochemical; details: organic solvent or mixture
# Experimental: The chemotherapeutic agent of the present invention comprises a combination of alexidine dihydrochloride and sodium pentaborate pentahydrate and induces apoptosis on pancreatic cancer cells. Alexidine dihydrochloride is a compound having a molecular weight of 581.71 gram/mol and the chemical formula of C26H56N10 ·2HCl and it is dissolved in dimethylsulfoxide of 10 mg/ml or above.
# [9] = system: healthy human pancreatic cell (hTert-HPNE); experiment: colorimetric tetrazolium salt (MTS) viability assay, hTert-HPNE; format: cell-based; details: AD alone, 2.5 μM, 48 hours of incubation
# [10] = AD alone 2.5 μM, 48-hour incubation, dihydrochloride
"dissolution in the medium ([1]; concentrations used (100-1000 μM), no additional solvent)",Compound,"precipitate formation in the medium ([1]; medium pH 7.4, 72 hours)","average vitality ([2]; NAB alone 1000 μM, incubated for 48 hours, hTert-HPNE, HNPC, hFSSCs, HUVEC)","viability of AsPc-1 cells [3, 10]","viability at 2.5 µM ([3]; Homo sapiens, ASPC1, 48 h, read-out: viability of AsPc-1 cells, AD alone 2.5 μM, 48-hour incubation)","viability of Psn-1 cells [4, 10]","viability at 2.5 µM ([4]; Homo sapiens, PSN1, 48 h, read-out: viability of Psn-1 cells, AD alone 2.5 μM, 48-hour incubation)",viability at 2.5 µM [5],viability at 2.5 µM [6],"effect on healthy cells ([2]; AD alone 2.5 μM, 48-hour incubation, hTert-HPNE and HNPC, dihydrochloride)",effect on healthy intervertebral disc cells (HNPC) [7],solubility [8],effect on healthy pancreas cell (hTert-HPNE) [9]
dissolved instantly,sodium pentaborate pentahydrate [NAB],did not form sodium pentaborate pentahydrate precipitate,70%,,,,,,,,,,
,"CCCCC(CC)CNC(=N)NC(=N)NCCCCCCNC(=N)NC(=N)NCC(CC)CCCC (stereo not shown) [AD, alexidine dihydrochloride]",,,58.3%,58%,51.6%,45%,50%,53%,did not harm the healthy cells; also recorded: do not kill the healthy cells,not affected,≥ 10000 µg/mL,not affected
